Measurements: US20250206761A1, “HALOINDOLE MACROCYCLIC COMPOUNDS FOR THE TREATMENT OF CANCER” (Hoffmann-La Roche Inc., priority 2022, published 2025)

Legend:
[1] = tested on: NCI-H358 (ATCC-CRL5807) cells; test: Cell viability assay, G12C (NCI-H358); format: cell-based, human; details: Homo sapiens; KRAS cell viability, NCI-H358, 72 hrs, Cell Counting Kit-8
In short: (§1)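 IC50 derived by 4-parameter sigmoidal fit of CCK-8 signal (OD450−OD650, 2 h development) after 72 h compound exposure in 0.5% DMSO. Seeding density was 5,000 cells/well for NCI-H358 and 2,000 cells/well for AGS and SW620, plated overnight before dosing.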

[2] = tested on: AGS (ATCC-CRL-1739) cells; test: Cell viability assay, G12D (AGS); format: cell-based, human; details: Homo sapiens, KRAS cell viability, 72 hrs, Cell Counting Kit-8
In short: as §1

SW620 (ATCC-CCL-227) = test: Cell viability assay, G12V (SW620); format: cell-based, human; details: Homo sapiens, SW-620; KRAS cell viability, SW620, 72 hrs, Cell Counting Kit-8
In short: as §1

KRAS G12C-BRAF complex = KRAS G12C-BRAF complex (Homo sapiens (Human), UniProt P01116+P62937, G12C); test: KRAS-BRAF with CYPA (500 nM) interaction assay (TR-FRET), G12C; format: biochemical
[3] = biological target: KRAS G12D binding to BRAF (Homo sapiens (Human), UniProt P01116+P62937, G12D); test: KRAS-BRAF with CYPA (500 nM) interaction assay (TR-FRET), G12D; format: biochemical
[4] = biological target: KRAS G12V binding to BRAF (Homo sapiens (Human), UniProt P01116+P62937, G12V); test: KRAS-BRAF with CYPA (500 nM) interaction assay (TR-FRET), G12V; format: biochemical
In short: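 A TR-FRET assay measured how compound, in the presence of CYPA, disrupts binding of GMPPNP-loaded 6His-KRAS G12V to BRAF. The buffer contained 25 mM HEPES PH=7.4, 0.002% Tween20, 0.1% BSA, 100 mM NaCl, 5 mM MgCl2 and 10 μM GMPPNP. Compounds ran as a 16-point 3-fold dilution series from 10 μM for 3 hours.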

[5] = tested on: phosphorylation of ERK, KRAS G12C in NCJ-H358 cells; test: pERK inhibition assay, KRAS G12C; format: cell-based, human; details: Homo sapiens, 4 hours
In short: (§2)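 4 h compound treatment (0.5% DMSO final) of overnight-plated cells; formaldehyde fix, cold MeOH permeabilization, BSA block. Anti-pERK primary overnight at 4 °C, HRP anti-rabbit secondary, TMB readout at OD450. IC50 via 4-parameter sigmoidal model.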

[6] = tested on: phosphorylation of ERK, KRAS G12D in AGS cells; test: pERK inhibition assay, KRAS G12D; format: cell-based, human; details: Homo sapiens, 4 hours
Protocol: This assay is to measure the ability of test compounds in inhibiting the phosphorylation of ERK, the downstream signaling of KRAS G12C in NCJ-H358 cells, KRAS G12D in AGS cells, and KRAS G12V in SW620. NCJ-H358 (ATCC-CRL5807) cells, AGS (ATCC-CRL-1739) cells, SW620 (ATCC-CCL-227) cells were all grown and maintained using RPMI-1640 medium (Thermo Fisher Scientific) with 10% fetal bovine serum and 1% penicillin/streptomycin. On the day prior to compound addition, cells were plated in tissue culture-treated 96 well plates (Corning-3699) at a density of 30,000 cell/well, 20,000 cell/well, 30,000 cell/well for NCJ-H358, AGS and SW620 respectively, and allowed for attachment overnight. Diluted compounds were then added in a final concentration of 0.5% DMSO. After 4 hours of incubation, the medium was removed, 100 μL of 4% formaldehyde was added, and the assay plates were incubated at room temperature for 20 minutes. The plates were then washed once with phosphate buffered saline (PBS), and permeabilized with 100 μL of chilled methanol for 10 minutes. Non-specific antibody binding to the plates was blocked using 50 μL 1×BSA blocking buffer (Thermo-37520, 10-fold dilution by Phosphate-Buffered Saline Tween (PBST) for at least 1 hour at room temperature.
The amount of phosphor-ERK was determined using an antibody specific for phosphorylated form of ERK. Primary antibody (pERK, CST-4370, Cell Signaling Technology) was diluted 1:300 in blocking buffer, with 50 μL aliquoted to each well, and incubated overnight at 4′° C. Cells was washed five times for 5 minutes with PBST. Secondary antibody ([…] anti-rabbit IgG, CST-7074, Cell Signaling Technology) was diluted 1:1000 in blocking buffer, and 50 μL was added to each well and incubated 1-2 hrs at room temperature. Cells was washed 5 times for 5 minutes with PBST, 100 μL TMB ELISA substrate (abcam-ab171523) were added and gently shake for 20 minutes. 50 μL stop solution (abcam-ab171529) were added, and then read the signal (OD450) by EnVision.
IC50 was determined by fitting a 4-parameter sigmoidal concentration response model.

[7] = tested on: phosphorylation of ERK, KRAS G12V in SW620; test: pERK inhibition assay, KRAS G12V; format: cell-based, human; details: Homo sapiens, SW-620, SW620, 4 hours
In short: as §2

Chain of KRAS G12V binding to BRAF (P01116-2 other isoform, or with tags, fused parts or gaps G12V): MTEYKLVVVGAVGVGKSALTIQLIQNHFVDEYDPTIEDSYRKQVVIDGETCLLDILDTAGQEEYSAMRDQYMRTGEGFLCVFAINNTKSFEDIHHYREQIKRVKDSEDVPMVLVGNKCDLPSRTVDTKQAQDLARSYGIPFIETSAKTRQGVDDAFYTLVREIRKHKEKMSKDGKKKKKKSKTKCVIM
Chain of KRAS G12V binding to BRAF (P62937 whole entry): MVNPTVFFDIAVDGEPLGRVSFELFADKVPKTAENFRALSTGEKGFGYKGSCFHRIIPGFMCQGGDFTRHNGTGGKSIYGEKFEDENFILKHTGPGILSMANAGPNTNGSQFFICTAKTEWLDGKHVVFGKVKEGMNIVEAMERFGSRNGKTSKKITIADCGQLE
Chain of KRAS G12D binding to BRAF (P01116-2 other isoform, or with tags, fused parts or gaps G12D): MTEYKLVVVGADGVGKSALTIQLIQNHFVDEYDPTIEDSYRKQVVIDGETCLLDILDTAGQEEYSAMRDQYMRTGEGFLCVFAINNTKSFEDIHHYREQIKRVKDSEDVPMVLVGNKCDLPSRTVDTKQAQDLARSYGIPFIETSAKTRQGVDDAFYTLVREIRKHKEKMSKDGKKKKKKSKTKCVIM
Chain of KRAS G12D binding to BRAF (P62937 whole entry): as the sequence (P62937 whole entry) above
Chain of KRAS G12C-BRAF complex (P01116-2 other isoform, or with tags, fused parts or gaps G12C): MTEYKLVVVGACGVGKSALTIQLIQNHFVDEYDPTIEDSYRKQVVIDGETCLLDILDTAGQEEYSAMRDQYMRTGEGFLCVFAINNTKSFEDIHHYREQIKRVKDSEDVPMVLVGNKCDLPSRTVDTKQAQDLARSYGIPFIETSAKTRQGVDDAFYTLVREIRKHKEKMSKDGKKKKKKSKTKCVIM
Chain of KRAS G12C-BRAF complex (P62937 whole entry): as the sequence (P62937 whole entry) above

SMILES | IC50 [1] [nM] | IC50 [2] [nM] | IC50 (SW620 (ATCC-CCL-227)) [nM] | IC50 (KRAS G12C-BRAF complex) [nM] | IC50 [3] [nM] | IC50 [4] [nM] | IC50 [5] [nM] | IC50 [6] [nM] | IC50 [7] [nM]
CCn1c(-c2cc(N3CCN(CC(F)(F)F)CC3)cnc2[C@H](C)OC)c2c3cc(c(F)cc31)-c1csc(n1)C[C@H](NC(=O)[C@H](C(C)C)N(C)C(=O)[C@H]1CCN(C(=O)[C@H](F)Cl)C1)C(=O)N1CCC[C@H](N1)C(=O)OCC(C)(C)C2 (atropisomer, axis not shown; (M)) [Example 33, (3S)-1-[(2R)-2-chloro-2-fluoro-acetyl]-N-[(1S)-1-[[(7S,13S)-21-ethyl-24-fluoro-(20M)-20-[2-[(1S)-1-methoxyethyl]-5-[4-(2,2,2-trifluoroethyl)piperazin-1-yl]-3-pyridyl]-17,17-dimethyl-8,14-dioxo-15-oxa-4-thia-9,21,27,28-tetrazapentacyclo[17.5.2.1^2,5.1^9,13.0^22,26]octacosa-1(25),2,5(28),19,22(26),23-hexaen-7-yl]carbamoyl]-2-methyl-propyl]-N-methyl-pyrrolidine-3-carboxamide] | < 1 | 338 | 39 | 18 | > 10000 | > 10000 | 4 | 19 | 8
CCn1c(-c2cccnc2COC)c2c3cc(ccc31)-c1cc(O)cc(c1)C[C@H](NC(=O)[C@H](C(C)C)N(C)C(=O)C1CN(C(=O)[C@H](F)Cl)C1)C(=O)N1CCC[C@H](N1)C(=O)OCC(C)(C)C2 [RM461-A, reference compound] | 45 | 7920 | – | 27 | > 10000 | 6080 | 49 | > 10000 | –
CO[C@@H](C)c1ncc(N2CCN(C)CC2)cc1-c1c2c3c(F)c(ccc3n1CC(F)(F)F)-c1csc(n1)C[C@H](NC(=O)[C@H](C(C)C)N(C)C(=O)[C@H]1CCN(C(=O)[C@H](F)Cl)C1)C(=O)N1CCC[C@H](N1)C(=O)OCC(C)(C)C2 (atropisomer, axis not shown; (M)) [Example 1, (3S)-1-[(2R)-2-chloro-2-fluoro-acetyl]-N-[(1S)-1-[[(7S,13S)-25-fluoro-(20M)-20-[2-[(1S)-1-methoxyethyl]-5-(4-methylpiperazin-1-yl)-3-pyridyl]-17,17-dimethyl-8,14-dioxo-21-(2,2,2-trifluoroethyl)-15-oxa-4-thia-9,21,27,28-tetrazapentacyclo[17.5.2.1^2,5.1^9,13.0^22,26]octacosa-1(25),2,5(28),19,22(26),23-hexaen-7-yl]carbamoyl]-2-methyl-propyl]-N-methyl-pyrrolidine-3-carboxamide] | 5 | 390 | 92 | – | – | – | 7 | 137 | 55
CO[C@@H](C)c1ncc(N2CCN(C)CC2)cc1-c1c2c3c(F)c(ccc3n1CC(F)(F)F)-c1cc(O)cc(c1)C[C@H](NC(=O)[C@H](C(C)C)N(C)C(=O)[C@H]1CCN(C(=O)[C@H](F)Cl)C1)C(=O)N1CCC[C@H](N1)C(=O)OCC(C)(C)C2 (atropisomer, axis not shown; (M)) [Example 27, (3S)-1-[(2R)-2-chloro-2-fluoro-acetyl]-N-[(1S)-1-[[(8S,14S)-26-fluoro-4-hydroxy-(21M)-21-[2-[(1S)-1-methoxyethyl]-5-(4-methylpiperazin-1-yl)-3-pyridyl]-18,18-dimethyl-9,15-dioxo-22-(2,2,2-trifluoroethyl)-16-oxa-10,22,28-triazapentacyclo[18.5.2.1^2,6.1^10,14.0^23,27]nonacosa-1(26),2,4,6(29),20,23(27),24-heptaen-8-yl]carbamoyl]-2-methyl-propyl]-N-methyl-pyrrolidine-3-carboxamide] | – | 37 | 31 | 2 | 7 | 3 | 3 | 11 | 10
